According to patent US20240408139A1, “ENGINEERED CYTOKINE RECEPTORS FOR TUNABLE ADOPTIVE CELL THERAPY” (Dana-Farber Cancer Institute, Inc., priority 2021, published 2024):

Legend:
[1] = tested on: CD8+ T cells comprising anti-fluorescein CAR; test: Stimulation of anti-fluorescein CAR T cells by plate-bound or free FITC conjugate; IL-2, IFN-gamma and CD69 by flow cytometry; type: cell-based
Method: T cells comprising a nucleic acid encoding anti-fluorescein CAR were stimulated on FITC-conjugated-antibody-coated normal (Normal) or high affinity (High affinity) plates or antibody-FITC solution (Free) with increasing doses of FITC (0, 0.1, 1, 10, and 100 μg/mL) in the presence or absence of CD3/CD28 co-stimulation. Expression of IL-2, IFN-gamma and CD69 in CD8^+ T cells were assessed by flow cytometry.

CD8+ T cells = test: Memory markers on CD8+ T cells expressing cytokine receptor switches, stimulated on FITC-conjugated-BSA-coated plate, flow cytometry; type: cell-based, human; settings: with CD3/CD28-costimulation
Method: (§1) T cells comprising nucleic acids encoding cytokine receptor switches were stimulated on FITC-conjugated-BSA-coated plate (FIG. 2) with increasing dose of FITC (0, 0.1, 1, 10, 100, and 1000 μg/mL) in the presence or absence of CD3/CD28 co-stimulation for up to 2 weeks. The effector memory (CD45RA^− CCR7^−), central memory (CD45RA^−, CCR7 ^+), and activation (CD69) markers on CD4^+ and CD8^+ T cells were assessed by flow cytometry.

CD4+ T cells = test: Memory markers on CD4+ T cells expressing cytokine receptor switches, stimulated on FITC-conjugated-BSA-coated plate, flow cytometry; type: cell-based, human; settings: with CD3/CD28-costimulation, up to 2 weeks, FIG. 3A
Method: as §1

## BSA-FITC: fluorescein isothiocyanate (FITC) conjugated to bovine serum albumin (BSA)
[1]; bound on high-affinity plate, FIGS. 5A-5C
  stimulation of fluorescein-specific BAT-CAR-T cells: efficiently stimulated

## fluorescein isothiocyanate [FITC]
[1]; FITC-dose-dependent, 0-100 μg/mL, FIG. 5A
  expression of IL-2 in CAR T cells: increased
[1]; FITC-dose-dependent, 0-100 μg/mL, FIG. 5B
  expression of IFN-gamma in CAR T cells: increased
[1]; FITC-dose-dependent, 0-100 μg/mL, FIG. 5C
  expression of CD69 in CAR T cells: increased

B1: IL2RA-cytokine receptor switch: IL2RA signal peptide, anti-fluorescein scFv, CD8 hinge, IL2RA transmembrane and intracellular domains; SEQ ID NO: 59 (protein)
chain: MDSYLLMWGLLTFIMVPGCQADVVMTQTPLSLPVSLGDQASISCRSSQSLVHSNGNTYLRWYLQKPGQSPKVLIYKVSNRVSGVPDRFSGSGSGTDFTLKINRVEAEDLGVYFCSQSTHVPWTFGGGTKLEIKSSADDAKKDAAKKDDAKKDDAKKDGGVKLDETGGGLVQPGGAMKLSCVTSGFTFGHYWMNWVRQSPEKGLEWVAQFRNKPYNYETYYSDSVKGRFTISRDDSKSSVYLQMNNLRVEDTGIYYCTGASYGMEYLGQGTSVTVSTTTPAPRPPTPAPTIASQPLSLRPEACRPAAGGAVHTRGLDFACDVAVAGCVFLLISVLLLSGLTWQRRQRKSRRTI
CD8+ T cells; FIG. 3B
  central memory markers (CD45RA-, CCR7+) on CD8+ T cells: increased
CD8+ T cells; FITC-BSA-coated plate, up to 2 weeks, FIG. 3A
  effector memory markers (CD45RA- CCR7-) on CD8+ T cells: increased
CD4+ T cells
  effector memory markers (CD45RA- CCR7-) on CD4+ T cells: increased
